Laboratory results as given in ChEMBL document CHEMBL1201862, “PubChem BioAssay data set” (2004).
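Values below derive from 48-hour exposures of cells grown in 96-well plates, with endpoints linearly interpolated between the two concentrations bracketing the appropriate inhibition level. GI50 marks 50% less growth.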 Calls of active or inactive are those of the source. Cut-off read from the data, not from the text of the source: active = GI50 up to about 1.1 µM and inactive = higher.

What was measured:
Assay in all cases: growth of human tumour cells (NCI), 48 h
NCI-H23 = tested on: NCI-H23
BT-549 = tested on: BT-549
SR = tested on: SR
SK-MEL-5 = tested on: SK-MEL-5
HOP-62 = tested on: HOP-62
EKVX = tested on: EKVX
K562 = tested on: K562
HCT-15 = tested on: HCT-15
HCC 2998 = tested on: HCC 2998
HOP-92 = tested on: HOP-92
PC-3 = tested on: PC-3
RXF 393 = tested on: RXF 393
MOLT-4 = tested on: MOLT-4
HT-29 = tested on: HT-29
A498 = tested on: A498
COLO 205 = tested on: COLO 205
MCF7 = tested on: MCF7
CCRF-CEM = tested on: CCRF-CEM
SF-268 = tested on: SF-268

Row | SMILES | GI50 (NCI-H23) | GI50 (BT-549) | GI50 (SR) | GI50 (SK-MEL-5) | GI50 (HOP-62) | GI50 (EKVX) | GI50 (K562) | GI50 (HCT-15) [µM] | GI50 (HCC 2998) | GI50 (HOP-92) | GI50 (PC-3) | GI50 (RXF 393) | GI50 (MOLT-4) | GI50 (HT-29) | GI50 (A498) | GI50 (COLO 205) | GI50 (MCF7) | GI50 (CCRF-CEM) | GI50 (SF-268)
1 | NC(=O)/N=C(\N)NC(=O)c1ccccc1 | > 100 µM (inactive) | > 100 µM (inactive) | > 100 µM (inactive) | > 100 µM (inactive) | > 100 µM (inactive) | > 100 µM (inactive) | > 100 µM (inactive) | > 100 | > 100 µM (inactive) | > 100 µM (inactive) | > 100 µM (inactive) | > 100 µM (inactive) | > 100 µM (inactive) | > 100 µM (inactive) | > 100 µM (inactive) | – | – | – | –
2 | Nc1n[nH]c(Nc2ccc(Cl)cc2)c1P(=O)(c1ccccc1)c1ccccc1 | 30.4 µM (inactive) | – | 53.1 µM (inactive) | 20.9 µM (inactive) | 20.2 µM (inactive) | 35.2 µM (inactive) | 64.9 µM (inactive) | 28.6 | 24.7 µM (inactive) | 20.8 µM (inactive) | 19.9 µM (inactive) | 20.9 µM (inactive) | 27.2 µM (inactive) | 24 µM (inactive) | 37.8 µM (inactive) | 49.4 µM (inactive) | 29 µM (inactive) | 28.6 µM (inactive) | 15.2 µM (inactive)
3 | O=C(NC(C(F)(F)F)(C(F)(F)F)P(=O)(Cc1ccccc1)Cc1ccccc1)C(C(F)(F)F)C(F)(F)F | 19.7 µM (inactive) | – | 18.7 µM (inactive) | 15.4 µM (inactive) | 20.6 µM (inactive) | 26.4 µM (inactive) | 23 µM (inactive) | 29.4 | 27.5 µM (inactive) | – | 21.5 µM (inactive) | 21 µM (inactive) | 16.9 µM (inactive) | 19.8 µM (inactive) | 17.3 µM (inactive) | 18.4 µM (inactive) | 12.2 µM (inactive) | 29.6 µM (inactive) | 23.3 µM (inactive)
4 | COc1ccc2nc3c([N+](=O)[O-])ccc(NCCCN(C)C)c3c(N)c2c1 | 1.99 µM (inactive) | – | 0.721 µM (active) | 1.87 µM (inactive) | 1.78 µM (inactive) | 1.74 µM (inactive) | 0.41 µM (active) | 1.3 | – | 1.87 µM (inactive) | 1.4 µM (inactive) | 1.29 µM (inactive) | 0.276 µM (active) | 0.845 µM (active) | – | 0.764 µM (active) | 1.15 µM (inactive) | 0.245 µM (active) | 1.45 µM (inactive)
5 | CS(=O)(=O)OCC1CCCCCCCCCCC12SCCCS2 (configuration not stated) | > 100 µM (inactive) | – | > 100 µM (inactive) | > 100 µM (inactive) | > 100 µM (inactive) | > 100 µM (inactive) | > 100 µM (inactive) | > 100 | > 100 µM (inactive) | > 100 µM (inactive) | > 100 µM (inactive) | > 100 µM (inactive) | > 100 µM (inactive) | > 100 µM (inactive) | > 100 µM (inactive) | > 100 µM (inactive) | > 100 µM (inactive) | > 100 µM (inactive) | > 100 µM (inactive)
6 | COc1ccc(NC(=S)N/N=C\c2ccc(NC(C)=O)cc2)cc1 | > 100 µM (inactive) | > 100 µM (inactive) | 14.2 µM (inactive) | > 100 µM (inactive) | > 100 µM (inactive) | > 100 µM (inactive) | – | – | > 100 µM (inactive) | > 100 µM (inactive) | > 100 µM (inactive) | – | > 100 µM (inactive) | > 100 µM (inactive) | – | > 100 µM (inactive) | – | > 100 µM (inactive) | –
7 | CCOC(=O)c1csc(NC(=O)CN2CCN(c3ccccc3)CC2)n1 | > 100 µM (inactive) | – | > 100 µM (inactive) | 34.8 µM (inactive) | > 100 µM (inactive) | > 100 µM (inactive) | > 100 µM (inactive) | > 100 | > 100 µM (inactive) | > 100 µM (inactive) | > 100 µM (inactive) | > 100 µM (inactive) | 45.6 µM (inactive) | > 100 µM (inactive) | > 100 µM (inactive) | > 100 µM (inactive) | > 100 µM (inactive) | > 100 µM (inactive) | –
8 | CN(C)CCCNC(=O)N/N=C\c1cccc2ccccc12 | – | – | > 10 µM (inactive) | > 10 µM (inactive) | > 10 µM (inactive) | > 10 µM (inactive) | > 10 µM (inactive) | > 10 | > 10 µM (inactive) | > 10 µM (inactive) | > 10 µM (inactive) | > 10 µM (inactive) | > 10 µM (inactive) | > 10 µM (inactive) | > 10 µM (inactive) | > 10 µM (inactive) | > 10 µM (inactive) | > 10 µM (inactive) | > 10 µM (inactive)
9 | Cc1ccc(OCC2=NN3C(=O)/C(=C\c4ccc([N+](=O)[O-])o4)SC3N2)cc1 (configuration not stated) | 11.9 µM (inactive) | 12.5 µM (inactive) | 2.94 µM (inactive) | 8.99 µM (inactive) | 16.6 µM (inactive) | 12.1 µM (inactive) | 0.711 µM (active) | 2.42 | – | 2.8 µM (inactive) | 5.5 µM (inactive) | 14.9 µM (inactive) | 2.33 µM (inactive) | 6.7 µM (inactive) | 17.4 µM (inactive) | 3.19 µM (inactive) | – | 2.99 µM (inactive) | 4.07 µM (inactive)
10 | Nn1c(S)nnc1C12CC3CC(CC(C3)C1)C2 | > 100 µM (inactive) | – | > 100 µM (inactive) | > 100 µM (inactive) | > 100 µM (inactive) | > 100 µM (inactive) | > 100 µM (inactive) | > 100 | > 100 µM (inactive) | > 100 µM (inactive) | > 100 µM (inactive) | > 100 µM (inactive) | > 100 µM (inactive) | > 100 µM (inactive) | > 100 µM (inactive) | > 100 µM (inactive) | – | > 100 µM (inactive) | > 100 µM (inactive)
11 | c1ccc2c(CCNC3=NCCO3)cccc2c1 | > 10 µM (inactive) | – | > 10 µM (inactive) | > 10 µM (inactive) | > 10 µM (inactive) | > 10 µM (inactive) | > 10 µM (inactive) | > 10 | > 10 µM (inactive) | – | > 10 µM (inactive) | > 10 µM (inactive) | > 10 µM (inactive) | > 10 µM (inactive) | > 10 µM (inactive) | > 10 µM (inactive) | > 10 µM (inactive) | > 10 µM (inactive) | > 10 µM (inactive)
12 | O=C(O)CCCN1CCCCC1 | > 100 µM (inactive) | > 100 µM (inactive) | > 100 µM (inactive) | > 100 µM (inactive) | > 100 µM (inactive) | > 100 µM (inactive) | > 100 µM (inactive) | > 100 | > 100 µM (inactive) | > 100 µM (inactive) | > 100 µM (inactive) | > 100 µM (inactive) | > 100 µM (inactive) | > 100 µM (inactive) | > 100 µM (inactive) | – | – | > 100 µM (inactive) | > 100 µM (inactive)
13 | O=[N+]([O-])c1sc2ccc(Cl)cc2c1Nc1ccc(Cl)cc1 | > 100 µM (inactive) | > 100 µM (inactive) | – | > 100 µM (inactive) | > 100 µM (inactive) | > 100 µM (inactive) | > 100 µM (inactive) | > 100 | > 100 µM (inactive) | – | > 100 µM (inactive) | > 100 µM (inactive) | > 100 µM (inactive) | > 100 µM (inactive) | > 100 µM (inactive) | > 100 µM (inactive) | > 100 µM (inactive) | > 100 µM (inactive) | > 100 µM (inactive)
14 | CC(C)c1ccc2c(c1)[C@@]1(C)CC[C@H](C)C(C)(C)C1CC2 (some centres not stated) | 18.8 µM (inactive) | 20.6 µM (inactive) | 27.5 µM (inactive) | 20.3 µM (inactive) | 18.8 µM (inactive) | 18.9 µM (inactive) | 32.2 µM (inactive) | 18.1 | 20.9 µM (inactive) | 16.9 µM (inactive) | – | 17.5 µM (inactive) | 37 µM (inactive) | 16.3 µM (inactive) | 17.7 µM (inactive) | 20.1 µM (inactive) | 17.2 µM (inactive) | 23.7 µM (inactive) | 19.1 µM (inactive)
15 | CC(C)(C)c1ccc(-c2nnc(-c3cc(C#N)cc(-c4nnc(-c5ccc(C(C)(C)C)cc5)o4)c3)o2)cc1 | > 100 µM (inactive) | > 100 µM (inactive) | – | > 100 µM (inactive) | 60.1 µM (inactive) | > 100 µM (inactive) | > 100 µM (inactive) | > 100 | > 100 µM (inactive) | > 100 µM (inactive) | > 100 µM (inactive) | 0.0107 µM (active) | > 100 µM (inactive) | > 100 µM (inactive) | > 100 µM (inactive) | > 100 µM (inactive) | – | > 100 µM (inactive) | > 100 µM (inactive)
16 | CC(O[Si](c1ccccc1)(c1ccccc1)C(C)(C)C)[C@H](NC(=O)OC(C)(C)C)C(=O)O (some centres not stated) | 33 µM (inactive) | – | 28.2 µM (inactive) | 21.6 µM (inactive) | 49.8 µM (inactive) | 33.5 µM (inactive) | 46.6 µM (inactive) | 29 | 36.2 µM (inactive) | 29.9 µM (inactive) | 26.6 µM (inactive) | 35 µM (inactive) | 18.1 µM (inactive) | 32.2 µM (inactive) | 82.6 µM (inactive) | 22.7 µM (inactive) | 27.5 µM (inactive) | 10.2 µM (inactive) | 57.3 µM (inactive)
17 | CC(O)c1cc2c(s1)C(=O)c1c(C(C)O)csc1C2=O (configuration not stated) | 0.0561 µM (active) | 0.19 µM (active) | – | 0.0233 µM (active) | 0.199 µM (active) | 0.364 µM (active) | 0.139 µM (active) | 0.133 | 0.351 µM (active) | 0.248 µM (active) | 0.117 µM (active) | 0.187 µM (active) | 0.181 µM (active) | 0.586 µM (active) | 0.21 µM (active) | 1.28 µM (inactive) | 0.0573 µM (active) | 0.173 µM (active) | 0.249 µM (active)
